Experimental data taken from ChEMBL document CHEMBL1201862, “PubChem BioAssay data set” (2004).
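Test compounds were applied to cells in 96-well plates for 48 hours at 5 doses. GI50: concentration for 50% inhibition of growth.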 Calls of active or inactive are those of the source. Rule as the data show it: active = GI50 up to about 1.1 µM and inactive = higher.

Key:
Assay in all cases: growth of human tumour cells (NCI), 48 h
RXF 393 = test system: RXF 393
HCT-15 = test system: HCT-15
Hs-578T = test system: Hs-578T
OVCAR-4 = test system: OVCAR-4
SW-620 = test system: SW-620
SNB-19 = test system: SNB-19
CCRF-CEM = test system: CCRF-CEM
HL-60 = test system: HL-60
Malme-3M = test system: Malme-3M
NCI-H23 = test system: NCI-H23
SR = test system: SR
HCC 2998 = test system: HCC 2998
U-251 = test system: U-251
NCI-H460 = test system: NCI-H460
EKVX = test system: EKVX
LOX IMVI = test system: LOX IMVI
786-0 = test system: 786-0
SK-MEL-5 = test system: SK-MEL-5
ACHN = test system: ACHN
OVCAR-3 = test system: OVCAR-3

SMILES | GI50 (RXF 393) | GI50 (HCT-15) [µM] | GI50 (Hs-578T) | GI50 (OVCAR-4) | GI50 (SW-620) | GI50 (SNB-19) | GI50 (CCRF-CEM) | GI50 (HL-60) | GI50 (Malme-3M) | GI50 (NCI-H23) | GI50 (SR) | GI50 (HCC 2998) | GI50 (U-251) | GI50 (NCI-H460) | GI50 (EKVX) | GI50 (LOX IMVI) | GI50 (786-0) | GI50 (SK-MEL-5) | GI50 (ACHN) | GI50 (OVCAR-3)
CSc1ccccc1NC1=NCCO1 | > 100 µM (inactive) | > 100 | > 100 µM (inactive) | > 100 µM (inactive) | > 100 µM (inactive) | > 100 µM (inactive) | > 100 µM (inactive) | > 100 µM (inactive) | > 100 µM (inactive) | > 100 µM (inactive) | > 100 µM (inactive) | > 100 µM (inactive) | > 100 µM (inactive) | > 100 µM (inactive) | > 100 µM (inactive) | > 100 µM (inactive) | > 100 µM (inactive) | > 100 µM (inactive) | > 100 µM (inactive) | > 100 µM (inactive)
CCN(CC)c1ccc2cc(-c3nc(O)c4ccccc4n3)c(=N)oc2c1 | > 100 µM (inactive) | > 100 | > 100 µM (inactive) | > 100 µM (inactive) | > 100 µM (inactive) | > 100 µM (inactive) | > 100 µM (inactive) | > 100 µM (inactive) | > 100 µM (inactive) |  | > 100 µM (inactive) | > 100 µM (inactive) | > 100 µM (inactive) | > 100 µM (inactive) | > 100 µM (inactive) | > 100 µM (inactive) | > 100 µM (inactive) | > 100 µM (inactive) | > 100 µM (inactive) | 
COc1oc(C(=O)NC2CCCCC2)c(-c2ccc(Cl)cc2)c1S(=O)(=O)c1ccccc1 | 3.02 µM (inactive) | 44.9 | 16.2 µM (inactive) | 1.7 µM (inactive) | 38.2 µM (inactive) | 99.3 µM (inactive) | 2.2 µM (inactive) | 2.4 µM (inactive) | 11.7 µM (inactive) |  | 5.51 µM (inactive) | 19 µM (inactive) | 2.64 µM (inactive) | 10.5 µM (inactive) | 9.98 µM (inactive) | 2.78 µM (inactive) | 1.99 µM (inactive) | 28.1 µM (inactive) | 31 µM (inactive) | 1.89 µM (inactive)
O=[N+]([O-])/C(Cl)=C(\Nc1ccccc1)C(Cl)=C(Cl)Cl | 37.3 µM (inactive) | 25.4 | 34.3 µM (inactive) | 41.6 µM (inactive) |  | 33.5 µM (inactive) | 12.7 µM (inactive) | 20.9 µM (inactive) | 18 µM (inactive) | 44.8 µM (inactive) | 27.4 µM (inactive) | 37.5 µM (inactive) | 43.1 µM (inactive) | 39.4 µM (inactive) | 39.8 µM (inactive) | 32.9 µM (inactive) | 27.5 µM (inactive) | 23.7 µM (inactive) | 29.2 µM (inactive) | 18.2 µM (inactive)
